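Cultured in 96-well plates, cells were exposed to test compound for 48 hours across five concentrations. GI50 is the concentration that inhibits growth by half. TGI is the concentration that stops growth completely.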
Legend:
Test in all cases: DTP human tumour cell line panel, 48 h
[1] = test system: IGROV1 ovarian
[2] = test system: HS 578T breast
[3] = test system: A549 NSCLC
[4] = test system: CAKI-1 renal
[5] = test system: ACHN renal
[6] = test system: EKVX NSCLC
[7] = test system: SR leukemia
[8] = test system: TK-10 renal
[9] = test system: HL-60(TB) leukemia
[10] = test system: HOP-62 NSCLC
[11] = test system: HT29 colon
[12] = test system: PC-3 prostate
[13] = test system: T-47D breast
[14] = test system: OVCAR-5 ovarian
[15] = test system: A498 renal
[16] = test system: OVCAR-3 ovarian
[17] = test system: SK-OV-3 ovarian
[18] = test system: M14 melanoma
[19] = test system: U251 CNS
[20] = test system: SF-295 CNS
[21] = test system: UO-31 renal
[22] = test system: SNB-75 CNS
[23] = test system: CCRF-CEM leukemia
[24] = test system: UACC-257 melanoma
[25] = test system: BT-549 breast
[26] = test system: 786-0 renal
[27] = test system: SK-MEL-2 melanoma
[28] = test system: MDA-MB-435
[29] = test system: DU-145 prostate
[30] = test system: NCI-H522 lung
[31] = test system: RPMI-8226 leukemia
[32] = test system: NCI-H226 lung
[33] = test system: HCT-116 colon
[34] = test system: OVCAR-4 ovarian
[35] = test system: SF-268 CNS
[36] = test system: K-562 leukemia
[37] = test system: SN12C renal
[38] = test system: HOP-92 NSCLC
[39] = test system: SF-539 CNS
[40] = test system: MCF7 breast
[41] = test system: MOLT-4 leukemia
[42] = test system: KM12 colon
[43] = test system: COLO 205 colon
[44] = test system: NCI/ADR-RES ovarian
[45] = test system: HCT-15 colon
[46] = test system: SNB-19 CNS
[47] = test system: HCC-2998 colon
[48] = test system: SK-MEL-28 melanoma
[49] = test system: UACC-62 melanoma
[50] = test system: NCI-H460 lung
[51] = test system: SK-MEL-5 melanoma
[52] = test system: SW-620 colon
[53] = test system: RXF 393 renal
[54] = test system: LOX IMVI melanoma
[55] = test system: MDA-MB-231 breast
[56] = test system: OVCAR-8 ovarian

Cc1ccc(S(=O)(=O)NC2=NCCN2C(=S)SN2CCn3c2nsc3=S)cc1
GI50 [1]: 14.1 µM | TGI [1]: 34.6 µM | GI50 [2]: 31.4 µM | TGI [2]: > 100 µM | GI50 [3]: 30.4 µM | TGI [3]: 90.2 µM | GI50 [4]: 3.47 µM | TGI [4]: 14.6 µM | GI50 [5]: 6.56 µM | TGI [5]: 19.6 µM | GI50 [6]: 27.7 µM | TGI [6]: > 100 µM | GI50 [7]: 7.29 µM | TGI [7]: 36.6 µM | GI50 [8]: 11.1 µM | TGI [8]: 24.7 µM | GI50 [9]: 11.2 µM | TGI [9]: 55.6 µM | GI50 [10]: 22.4 µM | TGI [10]: 57.5 µM | GI50 [11]: 29.9 µM | TGI [11]: 97.5 µM | GI50 [12]: 17.2 µM | TGI [12]: 51.7 µM | GI50 [13]: 11.3 µM | TGI [13]: 26.2 µM | GI50 [14]: 20.1 µM | TGI [14]: 40.8 µM | GI50 [15]: 28.6 µM | TGI [15]: 68.7 µM | GI50 [16]: 10.5 µM | TGI [16]: 27.9 µM | GI50 [17]: 0.116 µM | TGI [17]: 13.6 µM | GI50 [18]: 15.2 µM | TGI [18]: 32.1 µM | GI50 [19]: 19.1 µM | TGI [19]: 39 µM | GI50 [20]: 18.2 µM | TGI [20]: 50.8 µM | GI50 [21]: 2.93 µM | TGI [21]: 11 µM | GI50 [22]: 24.7 µM | TGI [22]: 52.9 µM | GI50 [23]: 14 µM | TGI [23]: 51.9 µM | GI50 [24]: 19 µM | TGI [24]: 43.4 µM | GI50 [25]: 23.4 µM | TGI [25]: 55.8 µM | GI50 [26]: 19.1 µM | TGI [26]: 44.4 µM | GI50 [27]: 28.6 µM | TGI [27]: 89.2 µM | GI50 [28]: 17.3 µM | TGI [28]: 41.8 µM | GI50 [29]: 26.4 µM | TGI [29]: > 100 µM | GI50 [30]: 5.01 µM | TGI [30]: 18.8 µM | GI50 [31]: 16.7 µM | TGI [31]: 73.2 µM | GI50 [32]: 19.9 µM | TGI [32]: 50.6 µM | GI50 [33]: 13.7 µM | TGI [33]: 28.8 µM | GI50 [34]: 14 µM | TGI [34]: 28.2 µM | GI50 [35]: 32.4 µM | TGI [35]: 87.2 µM | GI50 [36]: 14.8 µM | TGI [36]: 42.4 µM | GI50 [37]: 19.4 µM | TGI [37]: 46.9 µM | GI50 [38]: 24.7 µM | TGI [38]: > 100 µM | GI50 [39]: 22 µM | TGI [39]: 52.7 µM | GI50 [40]: 32.5 µM | TGI [40]: > 100 µM | GI50 [41]: 20.6 µM | TGI [41]: > 100 µM | GI50 [42]: 16.6 µM | TGI [42]: 32.7 µM | GI50 [43]: 6.62 µM | TGI [43]: 21.2 µM | GI50 [44]: 31.8 µM | TGI [44]: > 100 µM | GI50 [45]: 15.1 µM | TGI [45]: 31.7 µM | GI50 [46]: 28.6 µM | TGI [46]: 83.1 µM | GI50 [47]: 21 µM | TGI [47]: 50.6 µM | GI50 [48]: 17.2 µM | TGI [48]: 32.7 µM | GI50 [49]: 15.1 µM | TGI [49]: 32.3 µM | GI50 [50]: 31 µM | TGI [50]: > 100 µM | GI50 [51]: 21.8 µM | TGI [51]: 50.3 µM | GI50 [52]: 14.1 µM | TGI [52]: 40.7 µM | GI50 [53]: 8.17 µM | TGI [53]: 20.9 µM | GI50 [54]: 1.92 µM | TGI [54]: 4.25 µM | GI50 [55]: 15.1 µM | TGI [55]: 38 µM | GI50 [56]: 24.3 µM | TGI [56]: 72.1 µM

— PubChem BioAssay (NCI)
